Measurements from patent US4430345A, “Prostaglandins” (National Research Development Corporation, priority 1979, dated 1984).

Assays:
[1] = tested on: rabbit aorta (thromboxane receptor sites); assay: Rabbit aorta system: antagonism of contraction by 11,9-(epoxymethano) PGH2; format: cell-based; set-up: key to Rabbit Aorta, affinity constant not given: (2): Partial agonist; settings: for Kb: Oryctolagus cuniculus, 0.5 h, Gaddum-Schild Equation, read-out: AFFINITY CONSTANTS, Rabbit Aorta (converted); for Kb / Rabbit Aorta, affinity constant not given: against 11,9-(epoxymethano) PGH2, compound added 30 minutes previously
Description: It is believed that such inhibition is the result of the compounds being thromboxane antagonists and the activity of the compounds is for convenience hereinafter discussed in these terms. […] Structural features which tend to endow a compound with a more pure antagonist form of activity are (a) the absence of a halogen substituent, particularly at the para position, in the benzene ring of a phenoxyethyl O-substituted oxime; (b) the absence of a halogen substituent at the meta position of a benzyl O-substituted oxime; and (c) the presence of two benzene rings in the oxime substituent,these rings being located, for example, on a carbon atom joined directly to the oxygen atom of the oxime group. Some activity has also been alserved in compounds according to the present invention on guinea pig tracheal muscle.
Spiral strips of thoracic aorta are suspended in Kreb's-Henseleit solution and aerated with 95% O2 /5% CO2 at 37° C. Tension changes are recorded with a Grass FTO3 force transducer. Initially, cumulative dose response curves to 11,9-(epoxymethano) PGH2 (2×10^-9, 1×10^-8, 5×10^-8 and 2.5×10^-7 M) are obtained. In a second experiment the individual compounds are added 30 minutes previously to the addition of the series of agonist doses. Affinity constants are calculated as above.
(§1) Results typical of those obtained for the various compounds (all of which are of the formula shown at the beginning of Example 4 except where otherwise indicated) are shown in Table 3.

[2] = target: T1, human platelets (thromboxane receptor sites) (Homo sapiens, UniProt P21731); assay: Human platelet system: antagonism of aggregation by 11,9-(epoxymethano) PGH2; format: cell-based; settings: for Kb: against 11,9-epoxymethano analogue of PGH2, compound added 5 minutes previously, Gaddum-Schild Equation, read-out: AFFINITY CONSTANTS (KB), Human Platelets (converted)
T1 construct: Platelet-rich plasma is obtained from fresh, citrated human blood; endogenous in cells; host or cells: human platelets (platelet-rich plasma from fresh, citrated human blood)
T1 sequence (P21731 1-343): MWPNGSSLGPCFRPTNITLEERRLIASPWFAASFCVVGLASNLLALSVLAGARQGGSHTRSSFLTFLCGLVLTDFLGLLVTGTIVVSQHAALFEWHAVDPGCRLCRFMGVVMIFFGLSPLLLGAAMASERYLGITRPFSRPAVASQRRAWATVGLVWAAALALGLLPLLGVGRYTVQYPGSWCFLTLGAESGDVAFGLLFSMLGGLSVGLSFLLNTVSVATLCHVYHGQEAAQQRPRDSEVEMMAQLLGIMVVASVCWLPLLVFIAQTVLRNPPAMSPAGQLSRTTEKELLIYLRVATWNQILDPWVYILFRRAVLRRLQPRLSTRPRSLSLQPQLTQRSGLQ
Experimental: Platelet-rich plasma is obtained from fresh, citrated human blood. Addition of the 11,9-epoxymethano analogue of PGH2 (1×10^-7 M to 5×10^-7 M) causes immediate aggregation recorded as an increase in light transmission (600 nm). In a second experiment the individual compounds are added 5 minutes previously to addition of the PGH2 analogue. The dose of the PGH2 analogue added is then increased to a level which gives a similar response to that obtained in the absence of antagonist. The affinity constant, KB, for the compound is calculated according to the Gaddum-Schild Equation (based on Law of Mass Action).
[B]=molar concentration of compound
as §1

α-adrenoceptors = assay: Rabbit aorta strip: block of the contractile action of noradrenaline; format: cell-based
[3] = tested on: platelets, archidonic acid; assay: Platelets: block of the aggregatory action of arachidonic acid; format: cell-based, human; settings: converted to TXA2 by the platelet enzyme system

Kb [2] [nM]	SMILES	Kb [1] [nM]	also measured
5260	O=C(O)CCC/C=C\C[C@@H]1[C@@H](C=NOCc2ccccc2)[C@@H]2C=C[C@H]1C2 (relative stereo)	667	–
4760	O=C(O)CCC/C=C\C[C@@H]1[C@@H](C=NOCc2ccc(Cl)cc2)[C@@H]2C=C[C@H]1C2 (relative stereo)	149	–
19.6	O=C(O)CCC/C=C\C[C@@H]1[C@@H](C=NOC(c2ccccc2)c2ccccc2)[C@@H]2C=C[C@H]1C2 (relative stereo)	1690	–
20000	O=C(O)CCC/C=C\C[C@@H]1[C@@H](C=NOCCOc2ccccc2)[C@@H]2C=C[C@H]1C2 (relative stereo)	400	–
10000	O=C(O)CCC/C=C\C[C@@H]1[C@@H](C=NOCCOc2ccc(Cl)cc2)[C@@H]2C=C[C@H]1C2 (relative stereo)	–	Rabbit Aorta, affinity constant not given [1]: (2)
25000	O=C(O)CCC/C=C\C[C@@H]1[C@@H](C=NOCCOc2ccc(F)cc2)[C@@H]2C=C[C@H]1C2 (relative stereo)	–	Rabbit Aorta, affinity constant not given [1]: (2)
1720	O=C(O)CCC/C=C\C[C@H]1[C@H]2CC[C@H](C2)[C@@H]1C=NOCc1ccc(F)cc1 (relative stereo)	435	–
–	O=C(O)CCC/C=C\C[C@H]1[C@H]2CC[C@H](C2)[C@@H]1C=NOCc1cccc(C(F)(F)F)c1 (relative stereo)	–	Rabbit Aorta, affinity constant not given [1]: (2)
1690	O=C(O)CCC/C=C\C[C@H]1[C@H]2CC[C@H](C2)[C@@H]1C=NOCc1cccc(Cl)c1 (relative stereo)	–	Rabbit Aorta, affinity constant not given [1]: (2)
3570	O=C(O)CCC/C=C\C[C@H]1[C@H]2CC[C@H](C2)[C@@H]1C=NOCc1ccc(Cl)cc1Cl (relative stereo)	238	–
20.8	O=C(O)CCC/C=C\C[C@H]1[C@H]2CC[C@H](C2)[C@@H]1C=NOC(c1ccccc1)c1ccccc1 (relative stereo)	5260	–
12000	O=C(O)CCCCCC[C@H]1[C@H]2CC[C@H](C2)[C@@H]1C=NOCc1ccc(F)cc1 (relative stereo)	–	–
5880	CCCCCON=C[C@H]1[C@@H]2CC[C@@H](C2)[C@@H]1C/C=C\CCCC(=O)O (relative stereo) [(CH2)4 CH3]	6670	–
–	O=C(O)CCC/C=C\C[C@@H]1[C@@H](C=NOCc2ccc(F)cc2)[C@@H]2C=C[C@H]1C2 (relative stereo) [Example 1, 5-endo-(6'-Carboxyhex-2'-Z-enyl)-6-exo-(O-p-fluorobenzyloxyiminomethyl)-bicyclo[2,2,1]hept-2Z-ene]	–	activity in the rabbit aorta strip test (in words) ([1]; 11,9-(epoxymethano) PGH2, rabbit aorta strip): pure antagonists in the rabbit aorta strip test; block of contractile action of noradrenaline (in words) (α-adrenoceptors): do not block the contractile action of noradrenaline; block of aggregatory action of archidonic acid (in words) [3]: block the aggregatory action of archidonic acid; activity in the platelet test (in words) ([2]; 11,9-(epoxymethano) PGH2, human platelets in vitro): antagonists in the platelet test
2500	O=C(O)CCC/C=C\C[C@@H]1[C@@H](C=NOCc2ccc(F)cc2)[C@@H]2C=C[C@H]1C2 (relative stereo) [drawing 29]	278	–
